pIC50: −log10 of the molar value.
Biological target: T1, FLT3-ITD (Homo sapiens, UniProt P36888)
T1 sequence (P36888 1-993): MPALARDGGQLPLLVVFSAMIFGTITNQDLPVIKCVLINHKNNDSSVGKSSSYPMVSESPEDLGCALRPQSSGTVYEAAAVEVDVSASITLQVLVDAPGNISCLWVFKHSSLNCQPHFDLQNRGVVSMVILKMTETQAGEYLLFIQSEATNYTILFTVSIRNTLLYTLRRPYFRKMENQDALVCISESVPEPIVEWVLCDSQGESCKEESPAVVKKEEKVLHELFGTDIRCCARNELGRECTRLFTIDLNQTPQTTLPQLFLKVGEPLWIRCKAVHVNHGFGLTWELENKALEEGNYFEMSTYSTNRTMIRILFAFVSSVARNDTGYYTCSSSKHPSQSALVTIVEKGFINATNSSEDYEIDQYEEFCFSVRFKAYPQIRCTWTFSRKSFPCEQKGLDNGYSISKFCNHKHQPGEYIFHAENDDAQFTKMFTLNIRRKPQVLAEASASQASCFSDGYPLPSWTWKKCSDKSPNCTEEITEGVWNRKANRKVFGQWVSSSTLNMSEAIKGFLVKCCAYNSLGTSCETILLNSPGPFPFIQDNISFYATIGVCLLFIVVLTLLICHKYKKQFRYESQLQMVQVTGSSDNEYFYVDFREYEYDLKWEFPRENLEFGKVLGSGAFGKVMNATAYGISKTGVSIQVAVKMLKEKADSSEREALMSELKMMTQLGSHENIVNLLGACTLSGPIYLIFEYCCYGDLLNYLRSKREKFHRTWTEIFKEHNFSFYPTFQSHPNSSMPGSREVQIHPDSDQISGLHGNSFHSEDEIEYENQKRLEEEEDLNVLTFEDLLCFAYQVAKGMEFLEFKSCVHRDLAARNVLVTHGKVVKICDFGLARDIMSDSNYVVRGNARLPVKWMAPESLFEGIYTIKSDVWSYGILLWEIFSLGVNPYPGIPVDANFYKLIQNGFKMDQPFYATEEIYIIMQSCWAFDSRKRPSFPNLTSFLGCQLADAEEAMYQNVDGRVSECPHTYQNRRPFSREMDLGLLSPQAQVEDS
Experiment: AlphaScreen kinase assay with recombinant enzyme, FLT3-ITD
Assay type: biochemical
Conditions: 8pt; read-out: FLT3_ITD 8pt: IC50
Procedure: In order to determine the effect of compounds on FLT3 catalytic activity, kinase assays using recombinant enzymes and AlphaScreen® technology have been established. The catalytic activity of c-kit activity was also measured to determine selectivity of the compounds. When the kinases are catalytically active, they phosphorylate a biotinylated peptide substrate on tyrosine residues. Using AlphaScreen® technology, the ability of the compounds to affect the catalytic activity of the kinases can be measured quantitatively. The peptide substrate is immobilized by the AlphaScreen® Streptavidin Donor beads and, upon phosphorylation by a tyrosine kinase, can bind to AlphaScreen® Anti-Phosphotyrosine (PY20) Acceptor beads. Upon excitation of these beads with laser light at 680 nm, singlet oxygen is produced. This singlet oxygen is rapidly quenched, unless the AlphaScreen® Anti-Phosphotyrosine (PY20) Acceptor beads are in close proximity, in which case a proximity signal can be measured at 580 nm. In the presence of catalytic activity, there is a very strong proximity signal. Selective kinase inhibitors affect a decrease in this proximity signal through a decrease in tyrosine phosphorylation of the peptide substrate.
The assay was performed as summarized below.
Poly (Glu4-Tyr) Peptide, biotin conjugate [Biotin-GG(EEEEY)10EE] (SEQ ID NO: 4)
Final concentration=30 nM
Final concentration for IC50 determination=10 μM (FLT3-D835Y or FLT3-ITD) or 100 μM (c-KIT)
AlphaScreen® Phosphotyrosine (PY20) Assay Kit
Final concentration=10 μg/mL
Dilute compounds in DMSO to 20× final concentration.
Add 1 μl of compound to each well of 384 well reaction plate (Perkin Elmer #6005359).
Mix enzyme and Poly (Glu4-Tyr) Peptide substrate at 1.33× final concentration in assay buffer.
Mix ATP at 5× final concentration in assay buffer.
Add 15 μL enzyme/substrate mixture to the reaction plate.
Add 4 μL of ATP to the reaction plate.
Mix Streptavidin Donor beads at 6× final concentration in Stop/Detection buffer.
Add 5 μL Streptavidin Donor beads to the reaction plate. Centrifuge 1 minute, shake to mix, and incubate at room temperature for 20 minutes.
Mix Anti-Phosphotyrosine (PY20) Acceptor beads at 6× final concentration in Stop/Detection buffer.
Add 5 μL Anti-Phosphotyrosine (PY20) beads to the reaction plate.
Centrifuge 1 minute, shake to mix, and incubate at room temperature for 60 minutes.
Read plate on Wallac EnVision™ 2103 Multilabel Reader.

Structure (SMILES): CC(C)(C#N)NC(=O)c1cccc(-c2cnc3[nH]c(-c4ccc(C5CC5)cc4)cc3c2)n1 [Compound P-0189, N-(1-cyano-1-methyl-ethyl)-6-[2-(4-cyclopropylphenyl)-1H-pyrrolo[2,3-b]pyridin-5-yl]pyridine-2-carboxamide]
- pIC50: 5.00 to 10.00

Structure (SMILES): O=C(c1cccc(-c2cnc3[nH]c(-c4ccccc4)cc3c2)n1)N1CCC(n2ccnc2)C1 (centres unmarked) [Compound P-0097, (3-imidazol-1-ylpyrrolidin-1-yl)-[6-(2-phenyl-1H-pyrrolo[2,3-b]pyridin-5-yl)-2-pyridyl]methanone]
- pIC50: 5.00 to 10.00

Structure (SMILES): O=C(NC1(CO)CC1)c1cccc(-c2cnc3[nH]c(-c4ccccc4)cc3c2)n1 [Compound P-0151, N-[1-(hydroxymethyl)cyclopropyl]-6-(2-phenyl-1H-pyrrolo[2,3-b]pyridin-5-yl)pyridine-2-carboxamide]
- pIC50: 5.00 to 10.00

Structure (SMILES): N#C[C@H]1CCN(C(=O)c2cccc(-c3cnc4[nH]c(-c5ccccc5)cc4c3)n2)C1 [Compound P-0117, (3S)-1-[6-(2-phenyl-1H-pyrrolo[2,3-b]pyridin-5-yl)pyridine-2-carbonyl]pyrrolidine-3-carbonitrile]
- pIC50: 5.00 to 10.00

Structure (SMILES): N#CC1CCN(C(=O)c2cccc(-c3cnc4[nH]c(C5=CCCCC5)cc4c3)n2)C1 (centres unmarked) [Compound P-0120, 1-[6-[2-(cyclohexen-1-yl)-1H-pyrrolo[2,3-b]pyridin-5-yl]pyridine-2-carbonyl]pyrrolidine-3-carbonitrile]
- pIC50: 5.00 to 10.00

Structure (SMILES): CC(C)(C#N)CNC(=O)c1cccc(-c2cnc3[nH]c(C4=CCSCC4)cc3c2)n1 [Compound P-0159, N-(2-cyano-2-methyl-propyl)-6-[2-(3,6-dihydro-2H-thiopyran-4-yl)-1H-pyrrolo[2,3-b]pyridin-5-yl]pyridine-2-carboxamide]
- pIC50: 5.00 to 10.00

Structure (SMILES): C#Cc1cc2cc(-c3cccc(C(=O)NC(C)(C)C#N)n3)cnc2[nH]1 [Compound P-0175, N-(1-cyano-1-methyl-ethyl)-6-(2-ethynyl-1H-pyrrolo[2,3-b]pyridin-5-yl)pyridine-2-carboxamide]
- pIC50: 5.00 to 10.00

Structure (SMILES): Cn1cncc1C#Cc1cc2cc(-c3cccc(C(=O)NC(C)(C)C#N)n3)cnc2[nH]1 [Compound P-0177, N-(1-cyano-1-methyl-ethyl)-6-[2-[2-(3-methylimidazol-4-yl)ethynyl]-1H-pyrrolo[2,3-b]pyridin-5-yl]pyridine-2-carboxamide]
- pIC50: 5.00 to 10.00

— patent publication US9938273B2 (Plexxikon Inc., priority 2015, dated 2018)
